Measurements: patent US8486945B2, “Heterocyclic inhibitors of an Hh-signal cascade, medicinal compositions based thereon and methods for treating diseases caused by the aberrant activity of an Hh-signal system” (priority 2007, dated 2013)

System: Hh-signalling cascade
Assay: Inhibition of SHh-induced alkaline phosphatase in C3H10T1/2 cells (Hh-signalling cascade inhibition)
Type: cell-based
Conditions: Mus musculus, C3H 10T1/2, half maximal inhibition of SHh (0.3 μg/ml) stimulation of cell alkaline phosphatase
Text: C3H10T1/2 Cells were used for identification of inhibitors of SHh-protein signaling cascade. SHh-protein activates C3H10T1/2 cells, that leads to their osteogenic differentiation [1) Kinto N., Iwamoto M., Enomoto-Iwamoto M., Noji S., Ohuchi H., Yoshioka H., Kataoka H., Wada Y., Yuhao G., Takahashi H. E., Yoshiki S., Yamaguchi A. Fibroblasts expressing Sonic hedgehog induce osteoblast differentiation and ectopic bone formation. FEBS Lett. 1997; 404(2-3): 319-23. 2) Spinella-Jaegle S., Rawadi G., Kawai S., Gallea S., Faucheu C., Mollat P., Courtois B., Bergaud B., Ramez V., Blanchet A. M., Adelmant G., Baron R., Roman-Roman S. Sonic hedgehog increases the commitment of pluripotent mesenchymal cells into the osteoblastic lineage and abolishes adipocytic differentiation. J. Cell Sci. 2001; 114(Pt 11): 2085-94] and, in particular, to expression enhancement of alkaline phosphatase enzyme.
The cells were cultivated in DMEM medium with 10% embryonal calfish serum in incubator at 37° C., 100% humidity and 5% CO2 content. The cells were placed in 384-well plates and left for night. On the next day the tested compounds in concentration of 10 μM were added to the cells, incubated for 30 min, then recombinant (R & D Systems, USA) SHh protein in concentration of 0.3 μg/ml was added and incubation was continued for 3 days. Cells with DMSO instead of a test compound and cells without SHh protein were used as test control. For determination of the cell alkaline phosphatase activity the cells were lysed in the buffer containing 0.2% Triton-X100, lisates were incubated together with proluminescent substrate CSPD (Applied Biosystems, USA) and the resultant luminescence was measured using reader VICTOR^2V (PerkinElmer, USA).
The ability of the compounds to inhibit Hh-signalling cascade was determined using C3H10T1/2 cells in 384-well plates as described in example 1. The compounds were added in triplicates in various concentrations, prepared by multiple dilution of starting solutions (concentration dependences of cell alkaline phosphatase inhibition induced by the addition of tested compounds are shown in FIG. 1). Activity of the compounds was characterized by their concentrations produced half maximal inhibition of stimulation of cell alkaline phosphatase SHh (IC50).

## Cc1nn(C(C)C(=O)N2CCN(c3ccccc3F)CC2)c(=O)c2nn(-c3ccccc3)c(C)c12 (centres unmarked) [I-1013, 2-Phenyl-3,4-dimethyl-6-{1-methyl-2-[4-(2-fluorophenyl)piperazin-1-yl]-2-oxoethyl}-2,6-dihydro-7H-pyrazolo[3,4-d]pyridazin-7-one]
  IC50: < 0.5 µM

## Cc1ccc(-n2nc3c(=O)n(CC(=O)Nc4ccccc4F)nc(C)c3c2C)c(C)c1 [I-1014, 2-[2-(2,4-dimethylphenyl)-3,4-dimethyl-7-oxo-2,7-dihydro-6H-pyrazolo[3,4-c]pyridazin-6-yl]-N-(2-fluorophenyl)acetamide]
  IC50: < 5 µM

## CCC(C(=O)N1CCOCC1)n1nc(C)c2c(C)n(-c3ccccc3)nc2c1=O (centres unmarked) [I-1015, 2-Phenyl-3,4-dimethyl-6-[1-(morpholin-4-ylcarbonyl)propyl]-2,6-dihydro-7H-pyrazolo[3,4-c]pyridazin-7-one]
  IC50: < 5 µM

## Cc1ccc(-n2nc3c(=O)n(CC(=O)NCc4ccc(C)o4)nc(C)c3c2C)cc1 [I-1016, 2-[2-(4-Methylphenyl)-3,4-dimethyl-7-oxo-2,7-dihydro-6H-pyrazolo[3,4-d]pyridazin-6-yl]-N-[(5-methylfuran-2-yl)methyl]acetamide]
  IC50: < 5 µM

## Cc1ccc(-n2nc3c(=O)n(C(C)C(=O)NCCc4cccs4)nc(C)c3c2C)cc1 (centres unmarked) [I-1017, 2-[2-(4-Methylphenyl)-3,4-dimethyl-7-oxo-2,7-dihydro-6H-pyrazolo[3,4-d]pyridazin-6-yl)-N-[2-(thien-2-yl)ethyl]propanamide]
  IC50: < 5 µM

## CCC(C(=O)NC1CC1)n1nc(C)c2c(C)n(-c3ccc(C)cc3)nc2c1=O (centres unmarked) [I-1018, 2-[2-(4-Methylphenyl)-3,4-dimethyl-7-oxo-2,7-dihydro-6H-pyrazolo[3,4-c]pyridazin-6-yl]-N-(cyclopropyl)butanamide]
  IC50: < 5 µM

## Cc1nn(CCC(=O)NCc2cccnc2)c(=O)c2nn(-c3ccccc3)c(C)c12 [I-1019, 3-(2-Phenyl-3,4-dimethyl-7-oxo-2,7-dihydro-6H-pyrazolo[3,4-c]pyridazin-6-yl)-N-(pyridin-3-ylmethyl)propanamide]
  IC50: < 5 µM

## Cc1nn(CCC(=O)NCc2ccco2)c(=O)c2nn(-c3ccccc3)c(C)c12 [I-1020, 3-(2-Phenyl-3,4-dimethyl-7-oxo-2,7-dihydro-6H-pyrazolo[3,4-c]pyridazin-6-yl)-N-(furan-2-ylmethyl)propanamide]
  IC50: < 5 µM

## Cc1nn(CCC(=O)N2CCOCC2)c(=O)c2nn(-c3ccccc3)c(C)c12 [I-1021, 2-Phenyl-3,4-dimethyl-6-(3-(morpholin-4-yl)-3-oxopropyl)-2,6-dihydro-7H-pyrazolo[3,4-c]pyridazin-7-one]
  IC50: < 5 µM

## Cc1nn(CCC(=O)NCc2cccs2)c(=O)c2nn(-c3ccccc3)c(C)c12 [I-1022, 3-(2-Phenyl-3,4-dimethyl-7-oxo-2,7-dihydro-6H-pyrazolo[3,4-c]pyridazin-6-yl)-N-(thien-2-ylmethyl)propanamide]
  IC50: < 5 µM

## Cc1ccc(-n2nc3c(=O)n(CCCC(=O)NCCc4ccco4)nc(C)c3c2C)cc1 [I-1023, 4-[2-(4-Methylphenyl)-3,4-dimethyl-oxo-2,7-dihydro-6H-pyrazolo[3,4-d]pyridazin-6-yl]-N-[2-(furan-2-yl)ethyl]butanamide]
  IC50: < 50 µM

## CCN1CCN(C(=O)CCCn2nc(C)c3c(C)n(-c4ccc(C)cc4)nc3c2=O)CC1 [I-1024, 2-(4-Methylphenyl)-3,4-dimethyl-6-[4-(4-ethylpiperazin-1-yl)-4-oxobutyl]-2,6-dihydro-7H-pyrazolo[3,4-c]pyridazin-7-one]
  IC50: < 50 µM

## Cc1nn(CCCC(=O)N2CCOCC2)c(=O)c2nn(-c3ccccc3)c(C)c12 [I-1025, 2-Phenyl-3,4-dimethyl-6-[4-(morpholin-4-yl)-4-oxobutyl]-2,6-dihydro-2H-pyrazolo[3,4-c]pyridazin-7-one]
  IC50: < 50 µM

## Cc1nn(CCCC(=O)Nc2ccc(C(C)C)cc2)c(=O)c2nn(-c3ccccc3)c(C)c12 [I-1026, 4-(2-Phenyl-3,4-dimethyl-7-oxo-2,7-dihydro-6H-pyrazolo[3,4-d]pyridazin-6-yl)-N-[(1-methylethyl)phenyl]butanamide]
  IC50: < 50 µM

## Cc1cccc(N2CCN(C(=O)CN3C(=O)CSc4c3c(C)nn4-c3ccccc3)CC2C)c1 (centres unmarked) [II-1001, 3-Methyl-4-[2-(3-methyl-4-m-tolylpiperazin-1-yl)-2-oxoethyl]-1-phenyl-1,4-dihydro-pyrazolo[3,4-b][1,4]thiazin-5-one]
  IC50: < 0.5 µM

## Cc1nn(-c2ccccc2)c2c1N(CC(=O)Nc1cccc(C(F)(F)F)c1)C(=O)CS2 [II-1002, 2-(3-Methyl-5-oxo-1-phenyl-5,6-dihydro-1H-pyrazolo[3,4-b][1,4]thiazin-4-yl)-N-(3-trifluoromethylphenyl)acetamide]
  IC50: < 0.5 µM

## Cc1nn(-c2ccccc2)c2c1N(CC(=O)NCc1ccccn1)C(=O)CS2 [II-1003, 2-(3-Methyl-5-oxo-1-phenyl-5,6-dihydro-1H-pyrazolo[3,4-b][1,4]thiazin-4-yl)-N-(pyridin-2-ylmethyl)acetamide]
  IC50: < 5 µM

## COc1ccc(CCNC(=O)CN2C(=O)CSc3c2c(C)nn3-c2ccccc2)cc1OC [II-1005, N-[2-(3,4-Dimethoxyphenyl)ethyl]-2-(3-methyl-5-oxo-1-phenyl-5,6-dihydro-1H-pyrazolo[3,4-b][1,4]thiazin-4-yl)acetamide]
  IC50: < 50 µM

## COc1ccc(CNC(=O)CN2C(=O)CSc3c2c(C)nn3-c2ccccc2)cc1 [II-1007, N-(4-Methoxybenzyl)-2-(3-methyl-5-oxo-1-phenyl-5,6-dihydro-1H-pyrazolo[3,4-b][1,4]thiazin-4-yl)acetamide]
  IC50: < 50 µM

## Cc1nn(-c2ccccc2)c2c1N(CC(=O)NC(C)C)C(=O)CS2 [II-1008, N-Isopropyl-2-(3-methyl-5-oxo-1-phenyl-5,6-dihydro-1H-pyrazolo[3,4-b][1,4]thiazin-4-yl)acetamide]
  IC50: > 50 µM

## Cc1nn(-c2ccccc2)c2c1N(CC(=O)NCCN1CCOCC1)C(=O)CS2 [II-1010, 2-(3-Methyl-5-oxo-1-phenyl-5,6-dihydro-1H-pyrazolo[3,4-b][1,4]thiazin-4-yl)-N-(2-morpholin-4-yl)ethylacetamide]
  IC50: > 50 µM

## CNC(=O)CN1C(=O)CSc2c1c(C)nn2-c1ccccc1 [II-1011, N-Methyl-2-(3-methyl-5-oxo-1-phenyl-5,6-dihydro-1H-pyrazolo[3,4-b][1,4]thiazin-4-yl)acetamide]
  IC50: > 50 µM

## Cc1nn(-c2ccccc2)c2c1N(CC(=O)N1CCN(c3ccc(Cl)cc3)CC1)C(=O)CS2 [II-1012, 4-{2-[4-(4-Chlorophenyl)piperazin-1-yl]-2-oxoethyl}-3-methyl-1-phenyl-1,4-dihydropyrazolo[3,4-b][1,4]thiazin-5-one]
  IC50: < 0.5 µM

## Cc1nn(-c2ccccc2)c2c1N(CC(=O)N1CCCC1)C(=O)CS2 [II-1013, 3-Methyl-4-[2-oxo-2-(pyrrolidin-1-yl)ethyl]-1-phenyl-1,4-dihydropyrazolo[3,4-b][1,4]thiazin-5-one]
  IC50: > 50 µM

## Cc1nn(-c2ccccc2)c2c1N(CCCC(=O)N1CCN(c3ccccc3)CC1)C(=O)CS2 [II-1023, 3-Methyl-4-[4-oxo-4-(4-phenylpiperazin-1-yl)butyl]-1-phenyl-1,4-dihydropyrazolo[3,4-b][1,4]thiazin-5-one]
  IC50: < 0.5 µM

## Cc1nn(-c2ccccc2)c2c1N(CCCC(=O)N1CCN(c3ccccn3)CC1)C(=O)CS2 [II-1025, 3-Methyl-4-[4-oxo-4-((4-pyridin-2-yl)piperazin-1-yl)butyl]-1-phenyl-1,4-dihydropyrazolo[3,4-b][1,4]thiazin-5-one]
  IC50: < 0.5 µM

## COc1ccc(NC(=O)CCCN2C(=O)CSc3c2c(C)nn3-c2ccccc2)cc1 [II-1026, N-(4-Methoxyphenyl)-4-(3-methyl-5-oxo-1-phenyl-5,6-dihydro-1H-pyrazolo[3,4-b][1,4]thiazin-4-yl)butyramide]
  IC50: < 50 µM

## COc1cccc(C(=O)Nc2ccc(-c3cn4ccccc4n3)cc2)c1 [III-1001, N-(4-(Imidazo[1,2-a]pyridin-2-yl)phenyl)-3-methoxybenzamide]
  IC50: < 0.5 µM

## CCC(=O)Nc1ccc(-c2cn3ccccc3n2)cc1 [III-1002, N-(4-(Imidazo[1,2-a]pyridin-2-yl)phenyl)propionamide]
  IC50: < 50 µM

## O=C(Nc1ccc(-c2cn3ccccc3n2)cc1)c1ccncc1 [III-1003, N-(4-(Imidazo[1,2-a]pyridin-2-yl)phenyl)isonicotinamide]
  IC50: < 0.5 µM

## O=C(Nc1ccc(-c2cn3ccccc3n2)cc1)c1cccs1 [III-1004, N-(4-(Imidazo[1,2-a]pyridin-2-yl)phenyl)thiophen-2-carboxamide]
  IC50: < 5 µM

## O=C(Nc1ccc(-c2cn3ccccc3n2)cc1)c1ccc(Cl)cc1 [III-1005, 4-Chloro-N-(4-(imidazo[1,2-a]pyridin-2-yl)phenyl)benzamide]
  IC50: < 5 µM
